Assay [1] has as its system prfA gene of L. monocytogenes (real-time PCR). The assay can be described thus: inhibitory effects of detergents on real-time PCR. It counts as biochemical. The protocol:
For experiments analysing the effects of food matrices and detergents contained in the matrix lysis buffer on real-time PCR, food matrices were mixed with equal amounts of ddH2O, stomachered for 3 minutes, diluted in a 10-fold dilution series (10^−1, 10^−2 and 10^−3) and 5 μl directly subjected to the real time PCR samples. An aliquot was cooked 15 min at 100° C. for comparison prior to subjection of 5 μl to real-time PCR. Detergents were diluted in 2-fold dilution series (0.4 M-0.05 M Urea and 0.8%-0.005% SDS) and 5 μl were subjected to the real-time PCR samples.
Real-time PCR was performed in an Mx3000p real-time PCR thermocycler (Stratagene, USA). The 25 μl volume contained 20 mM Tris-HCl, 50 mM KCl, 3.5 mM MgCl2. 500 nM of each primer, 250 nM of each probe, 200 μM (each) of dATP, dTTP, dGTP and dCTP, 1.5 U of Platinum Taq DNA polymerase (Invitrogen, Austria), 25 copies of the IAC and […]. Amplification following initial denaturation at 94° C. for 2 min was performed in 45 cycles, at each 94° C. for 15 s and 64° C. for 1 minute.
In general terms: Real-time PCR tracks product formation cycle by cycle.

Assay [2] relates to L. monocytogenes. In words: growth of L. monocytogenes after treatment with compounds of the matrix lysis protocol (Example 1). It counts as cell-based. The following applies: incubated 2 h at 45 °C in the compound, then plated. As for the experimental part:
L. monocytogenes EGDe was used as a DNA quantification standard for real-time PCR and for artificial contamination of food samples. The bacteria were maintained at -80° C. using the MicroBank technology (Pro-Lab Diagnostics, Canada). Listeria were grown in tryptone soy broth with 0.6% ([…]; Oxoid, UK) at 37° C. over night. For artificial contamination of food and viability staining, one milliliter of the over night culture was transferred to one milliliter of fresh medium and incubated at 37° C. for three hours. Plate count method and tryptone soy agar plates supplemented with 0.6% (w/v) yeast extract (TSA-Y; Oxoid, UK) were used for quantification of the pure cultures of L. monocytogenes. The agar plates were incubated at 37° C. for 24 hours. For determination of the survival rate of L. monocytogenes treated with different chemical compounds of the matrix lysis buffer system, 100 μl of an overnight culture of L. monocytogenes was pelleted at 8,000×g for 5 min, resuspended in the chemical compound of choice, and incubated for 2 h at 45° C. and 300 rpm on an Eppendorf shaker (Eppendorf, Germany). Afterwards the bacterial cells were washed twice in 1×PBS at 5,000×g and resuspended in 120 μl 1×PBS. One-hundred μl of the suspension was plated on […] agar plates (Biokar, Beauvais, France). Incubation was performed 48 h at 37° C.

The test system of assay [3] is Gram negative bacteria. The assay can be described thus: recovery of Gram negative bacteria in matrix lysis. Format: cell-based. Conditions: as detergent of the lysis buffer. The protocol: Combinations of five different detergents (Tween 20®, Tween 80®, Triton X-100®; SDS, and Lutensol AO-7), three enzymes (Protease, alpha-amylase and cellulase) and a sucrose buffer (0.25 M sucrose, 1 mM EDTA and 0.05 M Tris, pH 7.6) were compared with respect of their ability to dissolve food matrices (salmon, chicken meat, diary products, ice cream, blood, starch rich foodstuffs, egg and milk) and their effect on the cellular appearance of the bacterial cells. All chemicals used (with the exception of SDS, Sigma-Aldrich, Germany; Lutensol AO-7, BASF, Netherland and Savinase, Novozymes, Denmark) were purchased at Merck (Germany). The matrix lysis protocol is described below.
Matrix lysis was generally performed as described in example 1. Processing meat, fish, chicken and blood or when Gram positive bacteria were targeted, buffer system I (8 M urea, 1% SDS, and 1×PBS) was used. Buffer system II (8 M urea, 1% Lutensol AO-7 and 1×PBS) was used if Gram negative bacteria were targeted and for all other foodstuffs used (Milk, diary products, ice cream, and egg).

Assay [4] relates to S. thyphimurium. The assay can be described thus: BacLight viability staining after exposure to chemical compounds. It counts as cell-based. The protocol: (§1) For assessment of the survival rate of the bacteria treated with different chemical compounds of the matrix lysis buffer system, 100 μl of an overnight culture was pelleted at 8,000×g for 5 min, re-suspended in 1 ml of the chemical compound of choice, […] shaker (Eppendorf, Germany). The bacterial cells were then washed twice in 1×PBS at 5,000×g and re-suspended in 120 μl 1×PBS. One-hundred it of the suspension was plated onto TSB-Y agar plates (Oxoid). Incubation was performed for 48 h at 37° C. Additionally the Live/Dead® BacLight™ Bacterial Viability Kit (Molecular Probes, USA) was used to examine the condition of the bacteria after the chemical treatments.
(§2) Viability staining was performed using the Live/Dead® BacLight™ Bacterial Viability Kit (Molecular Probes) as prescribed by the manufacturer. Ten fields per filter were analysed, and two filters were prepared for each sample.

Assay [5] concerns L. monocytogenes. The assay can be described thus: plate growth after exposure to chemical compounds. Format: cell-based. The protocol: as §1
Assay [6] has as its system B. cereus. In words: plate growth after exposure to chemical compounds. Format: cell-based. The protocol: as §1
Assay [7] has as its system S. thyphimurium. The assay can be described thus: plate growth after exposure to chemical compounds. It counts as cell-based. The protocol: as §1
Assay [8] deals with S. aureus. In words: plate growth after exposure to chemical compounds. It counts as cell-based. The protocol: as §1
In assay [9] the test system is E. coli. In words: plate growth after exposure to chemical compounds. It counts as cell-based. The protocol:
as §1

The test system of assay [10] is L. monocytogenes. In words: BacLight viability staining after exposure to chemical compounds. It counts as cell-based. On the set-up: key: red: Red colour indicates dead cells; c.r.: Reduced cell count; green: Green colour indicates living cells. The protocol:
as §1, §2

The test system of assay [11] is B. cereus. The description is as above. On the set-up: key: red: Red colour indicates dead cells; c.r.: Reduced cell count; green: Green colour indicates living cells. It counts as cell-based. As for the experimental part:
as §1, §2

Assay [12] relates to S. aureus. The assay is described as above. Format: cell-based. On the set-up: key: red: Red colour indicates dead cells; c.r.: Reduced cell count; green: Green colour indicates living cells. The protocol:
as §1, §2

Assay [13] has as its system E. coli. The assay is described as above. It counts as cell-based. On the set-up: key: red: Red colour indicates dead cells; c.r.: Reduced cell count; green: Green colour indicates living cells. The protocol: as §1, §2

SMILES strings stand for the structures.

Take `CCCCCCCCCCCCOS(=O)(=O)[O-].[Na+]` [1% SDS, sodium dodecyl sulfate]: the “inhibitory effect on real-time PCR” value in assay [1] (SDS 0.8% to 0.005%, 15.5 and 1,550 copies/PCR) is “no amplification”. The “growth of L. monocytogenes on TSY agar after treatment” value in assay [2] is given as “Complete inhibition of growth”. For the same compound, the “recovery of Gram negative bacteria” value in [3] is “decreasing the recovery”.
Turning to `NC(N)=O` [8 M Urea, urea], the entries for the “S. thyphimurium BacLight” value in assay [4] (37 °C), in assay [4] (42 °C) and in [4] (45 °C) were “c.r.^b/red”, “c.r./red” and “c.r./red”, respectively. In addition, the “L. monocytogenes Plate growth” value in assay [5] (37 °C), in assay [5] (42 °C) and in assay [5] (45 °C) was “pos” throughout. Besides, the “B. cereus Plate growth” value in assay [6] (37 °C), in [6] (42 °C) and in assay [6] (45 °C) was “pos” each time. For the same compound, the “S. thyphimurium Plate growth” value in assay [7] (37 °C), in assay [7] (42 °C) and in [7] (45 °C) was “neg” in each case. Moreover, the “S. aureus Plate growth” value in assay [8] (37 °C), in [8] (42 °C) and in assay [8] (45 °C) was “pos” each time. Also, the “E. coli Plate growth” value in assay [9] (37 °C) and in [9] (42 °C) was “neg” in each case. For the same compound, the “L. monocytogenes BacLight” value in assay [10] (37 °C) is on record as “green^c”; in assay [10] (42 °C), “green”; in assay [10] (45 °C), “green”. The “B. cereus BacLight” value in [11] (37 °C), in assay [11] (42 °C) and in [11] (45 °C) was “green” in each case. The “S. aureus BacLight” value in [12] (37 °C), in assay [12] (42 °C) and in assay [12] (45 °C) was “green” each time. Besides, the “E. coli BacLight” value in assay [13] (37 °C) is given as “red^a”; in [13] (42 °C), “c.r./red”; in assay [13] (45 °C), “c.r./red”. Besides, the “inhibitory effect on real-time PCR” value in assay [1] (urea 0.4 M and 0.2 M, 15.5 copies of the target) was “total inhibition”; in [1] (urea 0.4 M, 1,550 copies of the target), “total inhibition”. Moreover, in assay [2], the “growth of L. monocytogenes on TSY agar after treatment” value is “able to grow”.

These data come from patent publication US9328326B2, “Method for isolating cells” (MERCK PATENT GMBH, priority 2006, dated 2016).
